{"source": "patent US9452983B2", "about": "“Method for refining quinolinic acid” (CJ CHEILJEDANG CORP., priority 2013, dated 2016)", "test": "Evaluation of solubility of quinolinic acid with respect to pH", "format": "physicochemical", "details": "room temperature (about 23° C.), pH controlled using 28%-ammonia water and 98% sulfuric acid, FIG. 1", "description": "Evaluation of solubility of Quinolinic Acid with Respect to pH\nSolubility of quinolinic acid in water at room temperature (about 23° C.) with respect to pH was evaluated using a pure quinolinic acid reagent (Sigma-Aldrich Prod. No. P63204), wherein the pH was controlled using a 28%-ammonia water and 98% sulfuric acid).", "data": [{"compound": "O=C(O)c1cccnc1C(=O)O", "note": "[quinolinic acid]", "values": [{"measurement": "Solubility of quinolinic acid in water with respect to pH", "result": "the lower the pH, the lower the solubility"}]}]}
